# Source: patent US12723029B2, “Mitochondrial ATP inhibitors targeting the gamma subunit prevent metastasis” (LUNELLA BIOTECH, INC., priority 2020, dated 2026)
# Assays:
# ATP5F1C = target: T1, ATP5F1C (Homo sapiens, UniProt P05496+P36542); experiment: Western blot of ATP5F1C protein expression in MDA-MB-231 2D monolayers; type: cell-based; details: 0.1, 1 and 10 μM, especially 10 μM, 24-120 hours, relative to DMSO
# T1 construct: Western blot analysis of MDA-MB-231 2D cell monolayers treated with Bedaquiline; endogenous in cells; host or cells: MDA-MB-231 (ATCC)
# Description: The binding of Bedaquiline to ATP5F1C in situ induces degradation of the protein. […] The effect was both time- and concentration-dependent.
# (§1) Western Blotting: Cells were lysed in RIPA buffer (Sigma Aldrich, Inc.) containing one tablet of Complete TM inhibitor mix (Roche Applied Science, Indianapolis) and one tablet of PhosSTOP™ […] per 10 mL of buffer and loaded onto SDS-polyacrylamide gels. The gels were transferred to 0.2 μm nitrocellulose membranes, using the Trans-Blot Turbo Transfer System (Bio-Rad, Inc.) Membranes were incubated with the respective primary antibodies diluted in Tris-buffered saline, 0.1% Tween 20 (Sigma Aldrich, Inc.) and 5% Bovine Serum Albumin (BSA; Sigma Aldrich Inc.) (TBST), and incubated overnight at 4° C. Then, the blots were washed and incubated with appropriate secondary antibodies and detected using Super Signal West Pico Chemiluminescent Substrate (Thermo Scientific, Inc.), using the G-Box (Syngene, Inc). Antibodies and their dilutions used for Western blot analysis were as follows: mouse anti-ATP5F1C 1:500, mouse anti-β-actin 1:10,000, rabbit anti-PARP 1:1,000, rabbit anti-p21 1:1,000. The resulting immune-blot images were acquired using GeneSys Software (Syngene, Inc.).
# MCF10A cells = experiment: 2D monolayer growth, MCF10A; details: MCF10A normal control mammary epithelial cells; 10 μM
# MDA-MB-231 cells [1] = experiment: 2D monolayer growth, MDA-MB-231; type: cell-based, human; details: 10 μM, time-dependent
# MDA-MB-231 cells [2] = experiment: 3D anchorage independent growth (mammosphere formation) assay; type: cell-based, human
# Description: 3D Anchorage Independent Growth Assay: This assay is also referred to as the mammosphere formation assay. A single-cell suspension was prepared using enzymatic, and manual disaggregation (25-g needle). Then, cells were plated at a density of 500 cells/cm^2 in mammosphere medium (DMEM-F12+1X B-27 Plus Supplement+20 ng/ml EGF+Pen/Strep) under non-adherent conditions, in culture dishes pre-coated with (2-hydroxyethylmethacrylate) (poly-HEMA, Sigma Aldrich Inc.), called “mammosphere plates.” Cells were grown for 5 days and maintained in a humidified incubator at 37° C. After 5 days of culture, 3D-mammospheres >50 μm were counted using an eye piece (“graticule”), and the percentage of cells plated which formed spheres was calculated and is referred to as percent mammosphere formation, and was normalized to one (1=100% MFE). 3D mammosphere formation efficiency (MFE) was analyzed in both the ATP-low and ATP-high sub-populations of cells. All 3D mammosphere experiments were performed in triplicate, at least 3 times independently.
# MDA-MB-231 cells [3] = experiment: Cell migration assay (Transwells); type: cell-based, human; details: 10 μM, 32 hours then 16 hours in Transwells
# Description: MDA-MB-231 cells were cultured in presence of Bedaquiline (10 μM) for 32 hours and moved to the Transwells for 16 hours in presence of Bedaquiline (10 μM). Unpaired t-test, **p<0.005.
# Cell Migration Assays: Briefly, 3.5×10^4 cells in 0.5 ml of serum-free DMEM with 0.1% BSA were added to the wells of 8-μm pore, non-coated membrane modified Boyden chambers (Transwells). The lower chambers contained 10% fetal bovine serum in DMEM to serve as a chemo-attractant. Cells were incubated at 37° C. and allowed to migrate throughout the course of 16 hours. Noninvasive cells were removed from the upper surface of the membrane by scrubbing with cotton swabs. Chambers were stained in 0.5% crystal violet diluted in 100% methanol for 30-60 min, rinsed in water and examined under a bright-field microscope. Values for invasion and migration were obtained by counting five fields per membrane (20× objective) and represent the average of three independent experiments.
# [4] = test system: mitochondrial ATP production in MDA-MB-231 cells; experiment: ATP assay using BioTracker ATP-Red 1 (flow cytometry); type: cell-based, human
# Description: FIG. 7 compares the fold-change of BioTracker ATP-Red (signal mean) between the control and MDA-MB-231 cells treated with Bedaquiline. […] The data in FIG. 7 based on two-way ANOVA, Sidak's multiple comparisons test, *p<0.05, ** p<0.005, ***p<0.0005, ****p<0.0001.
# ATP assay using BioTracker ATP-Red 1: Cells were stained with BioTracker ATP-Red 1 after various treatments. After 30 minutes of incubation, the cells were washed twice with DPBS, collected and dissociated into a single-cell suspension with a 40 μm cell strainer. The cells were analyzed using the Attune N×T Flow Cytometer. Means of the signal (at 570 nm) were compared.
# chick embryos = experiment: CAM assay: embryo toxicity; set-up: species or system chicken (White Leghorn); details: all concentrations tested in vivo; daily for 8 days
# Description: Next, to test in vivo activity, the well-established CAM assay was used with MDA-MB-231 cells, to measure the effect of Bedaquiline effects on tumor growth, spontaneous metastasis and embryo toxicity. FIG. 11A illustrates the timeline for the CAM assay. An inoculum of 1×10^6 MDA-MB-231 cells was added onto the CAM of each egg (day E9) and then eggs were randomized into groups. On day E10, tumors were detectable and they were then treated daily for 8 days with vehicle alone (1% DMSO in PBS) or Bedaquiline. After 8 days of drug administration, on day E18, all tumors were weighed, and the lower CAM was collected to evaluate the number of metastatic cells, as analyzed by qPCR with specific primers for Human Alu sequences. Before each drug administration, treatment tolerability was evaluated by scoring the number of live and dead chicken embryos.
# Tumor Growth, Metastasis and Embryo Toxicity Assays: Xenograft assays were carried out by INOVOTION (Société: 811310127), La Tronche-France. […] For tumor growth assays, at least 14 tumor samples were collected and analysed per group (N≥14). […] Genomic DNA was extracted from the CAM (commercial kit) and analyzed by qPCR with specific primers for Human Alu sequences. […] Before each administration, the treatment tolerability was evaluated by scoring the number of live and dead embryos.
# MDA-MB-231 cells [5] = experiment: Cell cycle analysis by FACS; type: cell-based, human
# Description: FIGS. 10A-10C show cell cycle populations for MDA-MB-231 cells treated with Bedaquiline (1 and 10 μM) or vehicle alone, after 48, 72 and 120 hours, respectively. Cell cycle analysis was performed using FACS. […] However, at 72 and 120 hours, a decrease in the S-phase population and a concomitant increase in the sub-G0-G1 population can be seen in FIGS. 10B and 10C. Two-way ANOVA, Sidak's multiple comparisons test, ns=not significant, *p<0.01, **p<0.001, ***p<0.0005.
# Cell Cycle Analysis by FACS: Cell-cycle analysis was performed on the ATP-high and ATP-low cell sub-populations, by FACS analysis using the Attune N×T Flow Cytometer. Briefly, after trypsinization, the re-suspended cells were incubated with propidium iodide, as per the manufacturer's recommendations (Merck Millipore, Inc.). At least 25,000 events were analyzed per condition. Gated cells were categorized into cell-cycle stages.
# MDA-MB-231 cells [6] = experiment: Live cell/dead cell analysis by FACS; type: cell-based, human; details: 1 and 10 μM
# Description: FIGS. 10D-10F show the results of live cell/dead cell analysis. MDA-MB-231 cells were treated with Bedaquiline (1 and 10 μM) or vehicle alone, for 48, 72 and 120 hours, and then subjected to live/dead analysis by FACS. […] However, at 72 and 120 hours (FIGS. 10E and 10F), a decrease in the live cell population and an increase in the dead cell population can be seen. […] Two-way ANOVA, Sidak's multiple comparisons test, ns=not significant, *p<0.01, **p<0.001, ***p<0.0005.
# p21 = experiment: Western blot of p21 protein expression; type: cell-based, human; details: MDA-MB; 0.1, 1 and 10 μM; 120 hours
# Description: (§2) Beta-actin was used as a control for equal loading.
# as §1
# PARP = experiment: Western blot of PARP protein expression; type: cell-based, human; details: MDA-MB; 0.1, 1 and 10 μM; 120 hours
# Description: as §2, §1
# MDA-MB-231 cells [7] = experiment: CAM assay: tumor growth and spontaneous metastasis of MDA-MB-231 xenografts; type: in vivo, chicken embryo (White Leghorn eggs)
compound,measurement,setting,value
"COc1nc2ccc(Br)cc2cc1[C@@H](c1ccccc1)[C@@](O)(CCN(C)C)c1cccc2ccccc12 [Bedaquiline, (1R,2S)-1-(6-bromo-2-methoxyquinolin-3-yl)-4-(dimethylamino)-2-naphthalen-1-yl-1-phenylbutan-2-ol]",levels of ATP5F1C protein expression,ATP5F1C,reduced in a sustained way
same,2D monolayer growth,MCF10A cells,No effect
same,2D monolayer growth,MDA-MB-231 cells [1],effectively inhibits 2D growth
same,block of 3D mammosphere formation,"MDA-MB-231 cells [2]; MDA-MB-231, 10 μM",~ 65%
same,block of cell migration,MDA-MB-231 cells [3],~ 50%
same,inhibition at 10 µM,"[4]; Homo sapiens, MDA-MB-231, 10 μM, 120 hours of treatment, read-out: maximal inhibition of mitochondrial ATP production",75%
same,toxicity for chick embryos (egg survival),chick embryos,not toxic
same,S-phase population,"MDA-MB-231 cells [5]; 1 and 10 μM, 72 and 120 hours",decrease
same,sub-G0-G1 population,"MDA-MB-231 cells [5]; 1 and 10 μM, 72 and 120 hours",increase
same,cell cycle populations,"MDA-MB-231 cells [5]; 1 and 10 μM, 48 hours",No effects were detectable
same,increase in the sub-G0-G1 population,MDA-MB-231 cells [5]; after 120 hours of treatment,2 fold
same,reduction of cells in S-phase,MDA-MB-231 cells [5]; after 120 hours of treatment,2 fold
same,apoptotic cell population (early or late),MDA-MB-231 cells [6]; 72 and 120 hours,no increase
same,dead cell population,MDA-MB-231 cells [6]; 72 and 120 hours,increase
same,live cell population,MDA-MB-231 cells [6]; 72 and 120 hours,decrease
same,live/dead cell populations,MDA-MB-231 cells [6]; 48 hours,No effects were detectable
same,p21 protein expression,p21,decreased in a concentration-dependent manner
same,PARP protein expression,PARP,decreased in a concentration-dependent manner
same,inhibition of spontaneous metastasis,"MDA-MB-231 cells [7]; CAM, 120 μM treatment, daily for 8 days, qPCR Human Alu, vs control",84%
same,tumor growth (average tumor weight),"MDA-MB-231 cells [7]; CAM, treated daily for 8 days, day E18",no statistically significant effect
CCCCCCCCCCCCCC(=O)OCCCCc1ccc2nc(OC)c([C@@H](c3ccccc3)[C@@](O)(CCN(C)C)c3cccc4ccccc34)cc2c1 [structure [4B]],"potency relative to unconjugated Bedaquiline, inhibiting mammosphere formation",MDA-MB-231 cells [2]; initial/early assessment,2-5 fold
same,"potency relative to unconjugated Bedaquiline, inducing ATP-depletion",[4]; initial/early assessment,2-5 fold
same,"potency relative to unconjugated Bedaquiline, inhibiting spontaneous metastasis","MDA-MB-231 cells [7]; initial/early assessment, CAM assay",2-5 fold
